Assay results published in patent US8613933B2, “Brachyury polypeptides and methods for use” (The United States of America, as represented by the …, priority 2007, dated 2013).
Peptide text beside a SMILES is read from it.

What was measured:
[1] = test system: normal donor CD19+ B cells; format: cell-based, human
Procedure: (§1) Target cells were labeled with 50 μCi of ^111Indium-labeled oxyquinoline (Amersham Health, Silver Spring, Md.) for 15 minutes at room temperature. Target cells in medium containing 10% human AB serum were plated at 3×10^3 cells per well, in 96-well rounded-bottom culture plates. Labeled C1R-A2 or T2 cells were incubated with peptides at the indicated concentrations for 60 minutes at 37° C. in 5% CO2 before the addition of effector cells. No peptide was added when carcinoma cells or CD19+ B cells were used as targets. CD8+ T cells negatively isolated from T-cell cultures were used as effector cells, at various effector-to-target (E:T) cell ratios. […] Supernatants were harvested and the ^111In released was measured by gamma counting. Spontaneous release was determined by incubating the target cells with medium alone, and complete lysis by incubating the target cells with 2.5% Triton X-100. All determinations were performed in triplicate, and standard deviations were calculated. Specific lysis was calculated as follows: specific lysis (%)=[(observed release-spontaneous release)/(complete release-spontaneous release)]×100. […] Cytotoxic lysis of normal B lymphocytes was also analyzed since low expression of Brachyury was detectable in CD19+ cells isolated from various healthy donors.

[2] = test system: T2 cells; format: cell-based, human
Procedure: as §1

[3] = biological target: T1, HLA-A0201 molecules (Homo sapiens, UniProt P04439, D140Y/D185E/D98H/E176V/E277Q/G131W/G231S/I119V/I121R/I166T/I218V/L300P/L318F/N151K/N90K/P208A/P217A/Q86G/Q94H/R138H/R169H/T345S); assay: HLA-A2 binding assay: HLA-A02 surface expression on T2 cells by flow cytometry; conditions: 25 μM peptide, compared to positive and negative control peptides
T1 construct: the T2 (HLA-A2+) transport-deletion mutant cell line; endogenous in cells; host or cells: T2 (HLA-A2+) TAP-deficient cells
Procedure: Binding of Brachyury-specific peptides T-p1, T-p2, T-p3, and T-p4 (SEQ ID NOs: 1-4) to HLA-A0201 molecules was evaluated by flow cytometry analysis of HLA-A02 surface expression on T2 cells. T2 cells (1×10^6) in serum-free Iscove's modified Dulbecco's medium were incubated in the presence of various concentrations of each peptide, in 24-well culture plates at 37° C. with 5% CO2. After 18 hours in culture, T2 cells were harvested, washed with 1× phosphate buffered saline (PBS) (Invitrogen) and stained with 20 μl of a FITC-conjugated anti-HLA-A02-specific monoclonal antibody (MAb) (One Lambda, Inc., Canoga Park, Calif.). A FITC-conjugated IgG2a MAb (BD Biosciences, San Jose, Calif.) was used as an isotype control. […] Results were expressed as mean fluorescence intensity (MFI) collected on a log scale. […] Assuming first order kinetics, the log2 of MFI/MFI0 (MFI is the fluorescence at each time point and MFI0 the initial fluorescence at time 0) was plotted against time (minutes). The decay rate constant was calculated as the slope of the linear regression for each curve and the half-life of each peptide-MHC complex was calculated as […].
In silico-predicted epitopes were then assessed for binding to the MHC molecules in a cell-based assay. […]

[4] = test system: CD8+ T cells; assay: IFN-γ ELISA of peptide-induced CD8+ T cells stimulated with peptide-pulsed autologous DCs; format: cell-based, human; conditions: healthy donor, DCs pulsed with 25 μM peptide, three IVS, 24 hours stimulation
Excerpt: To generate Brachyury-specific cytotoxic T cells (CTLs), peptide-pulsed irradiated (30 Gy) DCs were used as antigen presenting cells (APCs) with autologous, non-adherent cells used as effector cells at an effector-to-APC ratio of 10:1. Cultures were maintained for three initial days in medium containing 10% human AB serum, and four additional days in the same medium supplemented with 20 U/ml of recombinant human IL-2. After a seven-day culture period, designated as an in vitro stimulation (IVS) cycle, cells were re-stimulated as described above.
After three IVS cycles, CD8+ T cells that were negatively isolated by using a CD8+ isolation kit (Miltenyi Biotec, Auburn, Calif.) were stimulated for 24 hours in the presence of peptide-pulsed autologous DCs. Culture supernatants were analyzed for the presence of IFN-γ by using an enzyme linked immunosorbant assay (ELISA) kit (Biosource International Inc., Camarillo, Calif.). Results were expressed in pg/ml.
Irradiated DCs pulsed with 25 μM of each peptide were used to stimulate autologous T cells from a healthy donor's PBMCs. […] Cytotoxic lysis of normal B lymphocytes was also analyzed since low expression of Brachyury was detectable in CD19+ cells isolated from various healthy donors.

Row | Compound | Cytotoxic lysis of normal B lymphocytes [1] | Lowest peptide concentration showing cytotoxic responses of T-p2 CTLs [2] | Binding to HLA-A02 molecules (cell surface MHC stabilization, MFI) [3] | Induction of antigen-specific CTLs releasing IFN-γ upon stimulation with the specific peptide [4]
1 | CC(C)C[C@H](NC(=O)[C@@H](NC(=O)[C@H](CO)NC(=O)[C@@H](NC(=O)CNC(=O)[C@@H]1CCCN1C(=O)[C@H](CC(C)C)NC(=O)[C@H](CC(C)C)NC(=O)[C@@H](N)Cc1c[nH]c2ccccc12)[C@@H](C)O)[C@@H](C)O)C(=O)O [T-p2, WLLPGTSTL] (H-WLLPGTSTL-OH; N-terminus and C-terminus assumed) | No lysis was observed | 1 nM |  | 
2 | AMYSFLLDFV (listed as Homo sapiens) [T-p4] |  |  | highest binding to T2 cells | 
3 | RLIASWTPV (listed as Homo sapiens) [T-p3] |  |  | highest binding to T2 cells | induced antigen-specific CTLs able to release IFN-γ
